The nature of the data set: solvent given as SMILES.

Regarding `C[Si](C)(C)c1cccc2ccccc12`, the absorption maximum (in C1CCCCC1) is 294 nm.
`c1ccc(-c2nc(-c3ccccn3)sc2N(c2ccccc2)c2ccccc2)cc1`: for the setting “in ClC(Cl)Cl”, the absorption maximum is 388 nm.
On to `Cn1c(=O)c(/N=N/c2ccc(Nc3ccccc3)c(S(=O)(=O)O)c2)c(O)c2ccccc21`, for which the absorption maximum reads like this: (in C1CCOC1) 412 nm; (in CC(C)=O) 407 nm; (in CCOC(C)=O) 411 nm; (in CO) 400 nm; (in CS(C)=O) 396 nm; (in Cc1ccccc1) 414 nm. In addition, the absorption maximum turned out to be 415 nm (in ClCCl) and 385 nm (in O).
On to `CCCCN1C(=O)c2cccc3c([O-])c(/C=C/c4sc5ccccc5[n+]4CC)cc(c23)C1=O`, for which the absorption maximum by setting is: (in C1CCOC1) 586.75 nm; (in CC#N) 564.61 nm; (in CC(C)=O) 572.49 nm; (in CCO) 555.68 nm; (in CO) 545.83 nm; (in CS(C)=O) 566.81 nm. The absorption maximum came out at 607.26 nm (in Cc1ccccc1), 589.53 nm (in ClC(Cl)Cl), 584.78 nm (in ClCCl) and 489.49 nm (in O).
Where the note is “in Cc1ccccc1”, `CC(C)(C)c1ccc2c(c1)c1cc(C(C)(C)C)ccc1n2-c1cc[n+]2c(c1)-c1ccccc1O[B-]2(F)F` returned an absorption maximum of 375 nm.
Take `COc1ccc(/N=N/c2c(O)c3ccccc3n(C)c2=O)c(S(=O)(=O)O)c1`: the absorption maximum is, setting by setting: (in C1CCOC1) 449 nm; (in CC(C)=O) 451 nm; (in CCOC(C)=O) 446 nm; (in CO) 448 nm; (in CS(C)=O) 447 nm; (in Cc1ccccc1) 449 nm. For the same compound, the absorption maximum is, setting by setting: (in ClCCl) 451 nm; (in O) 447 nm.
For `Nc1ccc2c(ccc3[n+]2[B-](F)(F)n2c-3cc3c4ccccc4c4ccccc4c32)c1`, the absorption maximum (in ClCCl) came out at 482 nm.
With `COc1ccc(-n2c(-c3ccc(-c4cncc5ccccc45)cc3)nc(-c3ccccc3)c2-c2ccccc2)cc1`, the absorption maximum (in C1CCOC1) is on record as 328 nm.
Compound `CC(=O)c1c(N[C@@H](Cc2ccccc2)C(=O)O)c2ccc(N(C)C)cc2oc1=O` displayed an absorption maximum (in ClCCl) of 374 nm.
In the case of `CCCCCCC(CCCCCC)N1C(=O)c2cccc3c(-c4ccc(OC)c5cccc(C)c45)ccc(c23)C1=O`, the absorption maximum (in CCCCCC) stood at 326.6 nm; the absorption maximum (in CCCCCCCCCCCCCC) is listed as 327 nm; the absorption maximum (in CCCCCCCCCCCO) came out at 329 nm; the absorption maximum (in CCCCO) is recorded as 327.8 nm; the absorption maximum (in CN(C)C=O) came to 328.8 nm; the absorption maximum (in Cc1ccccc1) is 328.8 nm. The absorption maximum (in ClC(Cl)Cl) turned out to be 329 nm.
With `COc1ccc(/C=C/c2cc(/C=C/c3ccc(OC)cc3)nc(/C=C/c3ccccc3)n2)cc1`, for the setting “in ClCCl”, the absorption maximum is given as 369 nm.
The compound `COc1ccc(C2=CC(c3ccccc3)=C(c3ccccc3)C2)c2ccccc12` yielded an absorption maximum (in ClCCl) of 354 nm.
Turning to `COc1c(Br)c2cc(=O)oc3ccc4cccc1c4c32`, for the setting “in CC1CCCO1”, the absorption maximum is given as 475 nm.
In turn, `Cc1ccc(N(c2cc(C(C)(C)C)ccc2C)c2ccc3ccc4c(N(c5ccc(C)cc5C)c5cc(C(C)(C)C)ccc5C)ccc5ccc2c3c54)c(C)c1` displayed an absorption maximum (in Cc1ccccc1) of 431 nm.
Consider `CCCCn1c(-c2ccc(-c3nnc(-c4ccc5ccccc5c4)o3)cc2)nc(-c2ccccc2)c1-c1ccccc1`, for which, under “in ClCCl”, the absorption maximum is given as 340 nm.
Consider `COc1ccc2c(-c3nc(-c4cccc(C)c4)no3)cc(=O)oc2c1`, for which the absorption maximum runs as follows: (in CCO) 401 nm; (in ClC(Cl)Cl) 403 nm.
For the compound `O=c1[nH]c2[n+](c3ccccc13)[B-](F)(F)Oc1ccccc1-2`, the absorption maximum runs as follows: (in CC#N) 343 nm; (in Cc1ccccc1) 354 nm.
`CCOC(=O)/N=c1/oc2c(OC)cccc2cc1C#N`: for the setting “in ClCCl”, the absorption maximum was 374 nm.
Under “in CCO”, `Cc1cc2cc3ccccc3cc2cn1` displayed an absorption maximum of 379.08 nm.
`CCC1(CC)c2cc(B(c3c(C)cc(C)cc3C)c3c(C)cc(C)cc3C)ccc2-c2c1c1c(c3c2C(CC)(CC)c2cc(N(c4ccccc4)c4ccccc4)ccc2-3)C(CC)(CC)c2cc(B(c3c(C)cc(C)cc3C)c3c(C)cc(C)cc3C)ccc2-1`: the absorption maximum reads like this: (in C1CCOC1) 362 nm; (in CC#N) 359 nm; (in CC(C)=O) 360 nm; (in CCCCCC) 361 nm; (in CCCO) 360 nm; (in CCO) 360 nm. In addition, the absorption maximum came out at 363 nm (in Cc1ccccc1) and 364 nm (in ClC(Cl)Cl).
`C(#Cc1ncnc2ccccc12)c1ccc(N(c2ccccc2)c2ccccc2)cc1`: the absorption maximum (in ClCCl) was determined as 411 nm.
Consider `N#Cc1cccc2[nH]ccc12`, for which the absorption maximum by setting is: (in C1COCCO1) 304.29 nm; (in CC#N) 302.81 nm; (in O) 305 nm.
Turning to `Nc1ccc(-c2ccc(N)cc2)cc1`, the absorption maximum runs as follows: (in C1CCOC1) 306 nm; (in C1COCCO1) 289 nm; (in CC#N) 286 nm; (in CCCCCC) 279 nm; (in CCOC(C)=O) 285 nm; (in CN(C)C=O) 299 nm. Besides, the absorption maximum is 281 nm (in CO); 292 nm (in CS(C)=O); 295 nm (in Cc1ccccc1); 305 nm (in ClC(Cl)Cl); 286 nm (in ClCCl); 281 nm (in O).
For the compound `O=P1(c2ccccc2)c2ccccc2-c2sc3ccccc3c21` (stereo not given), the absorption maximum was 327 nm (in C1CCCCC1), 327 nm (in CC#N), 329 nm (in CCO) and 329 nm (in ClCCl).
For the compound `C(=C\c1c2ccccc2cc2ccccc12)/c1ccc2ccccc2n1`, the absorption maximum (in CC1CCCCC1) is 390 nm and the absorption maximum (in CC#N) was 390 nm.
`BrC1=CN2C[n+]3cc(Br)ccc3N=C2C=C1`: the absorption maximum (in CO) was found to be 434 nm.
`CC1(C)c2ccccc2N(c2ccc3c(c2)Oc2ccccc2S3(=O)=O)c2ccccc21` had an absorption maximum (in Cc1ccccc1) of 356 nm.
For `C1=C(c2ccccc2)C=C(c2ccccc2)/C1=C/C1CCCCC1`, the absorption maximum (in C1CCOC1) came out at 365 nm.
In the case of `Cc1oc(-c2ccccc2)nc1C(=O)O`, the absorption maximum amounted to 269 nm (in C1CCCCC1); 267 nm (in CC#N); 273 nm (in CCO); 267 nm (in CCOC(C)=O); 273 nm (in O).
In the case of `CCc1ccc(/C=C/c2ccc(-c3nnc(-c4ccc(-c5cc6ccccc6s5)cc4)o3)cc2)cc1`, the absorption maximum by setting is: (in CC#N) 342 nm; (in CC(C)=O) 347 nm; (in CCCCCCCC) 341 nm; (in CCCCCCCCCCO) 357 nm; (in CCCCCCCCO) 357 nm; (in CCCCCO) 354 nm. The absorption maximum was determined as 347 nm (in CCCO), 355 nm (in CN(C)C=O), 326 nm (in CO) and 350 nm (in CS(C)=O).
Regarding `c1ccc(-n2c(-c3ccc(N(c4ccc(-c5ccc(N(c6ccc(-c7nc8c9ccccc9c9ccccc9c8n7-c7ccccc7)cc6)c6ccc(-c7nc8c9ccccc9c9ccccc9c8n7-c7ccccc7)cc6)cc5)cc4)c4ccc(-c5nc6c7ccccc7c7ccccc7c6n5-c5ccccc5)cc4)cc3)nc3c4ccccc4c4ccccc4c32)cc1`, where the note is “in ClCCl”, the absorption maximum is 376 nm.
Turning to `Cc1cc(-n2c3ccccc3c3cc4c(cc32)C2c3ccccc3C4c3ccccc32)ccc1-c1nc(-c2ccccc2)nc(-c2ccccc2)n1`, the absorption maximum (in Cc1ccccc1) is given as 367 nm.
`CCn1c(-c2ccc(OC)cc2)c(-c2ccc3ccccc3c2)c(-c2ccc3ccccc3c2)c1-c1ccc(OC)cc1` returned an absorption maximum (in CCOC(C)=O) of 259 nm.
`CNc1cc2nc3cc(Cl)c(Cl)cc3nc2cc1NC` yielded an absorption maximum (in CCO) of 442 nm.
`CC(C)Nc1cc(F)c(C(=O)c2cc(F)c(NC(C)C)cc2F)cc1F`: the absorption maximum (in CCO) came to 357 nm.
In turn, `N#Cc1nc(N(Cc2ccccc2)Cc2ccccc2)c(C#N)nc1N(Cc1ccccc1)Cc1ccccc1` showed an absorption maximum (in ClC(Cl)Cl) of 493 nm.
Take `O=c1cc(-c2ccccc2)oc(-c2nc3ccccn3c2NC2CCCCC2)c1`: the absorption maximum (in ClCCl) is listed as 353 nm.
`c1ccc(N(c2ccccc2)c2ccc(-c3ccc(-c4ccc(-c5cccs5)c5nsnc45)s3)cc2)cc1` came in with an absorption maximum (in ClC(Cl)Cl) of 495 nm.
For `Fc1c(F)c(F)c([B-]2(c3c(F)c(F)c(F)c(F)c3F)Oc3c(ccc4c5c(ccc34)C=[N+](c3ccccc3)[B-](c3c(F)c(F)c(F)c(F)c3F)(c3c(F)c(F)c(F)c(F)c3F)O5)C=[N+]2c2ccccc2)c(F)c1F`, the absorption maximum (in C1CCOC1) is reported as 522 nm; the absorption maximum (in CC#N) is reported as 515 nm; the absorption maximum (in CC(C)=O) was found to be 515 nm; the absorption maximum (in Cc1ccccc1) was found to be 531 nm; the absorption maximum (in ClCCl) is listed as 533 nm.
Turning to `O=c1c2ccccc2sc2ccc(-n3c4ccccc4c4ccccc43)cc12`, the absorption maximum worked out at 388 nm (in C1CCOC1); 388 nm (in CCCCCC); 388 nm (in Cc1ccccc1); 388 nm (in ClC(Cl)Cl); 388 nm (in ClCCl).
As to `CCN(CC)c1ccc2c(-c3ccccc3C(=O)O)c3c([o+]c2c1)/C(=C/c1nc(C)n2ccccc12)CCC3`, the absorption maximum (in ClCCl) was found to be 701 nm.
As to `CC1(C)c2ccccc2N(c2ccc(-c3cccc(C#N)c3)cc2)c2ccccc21`, under “in Cc1ccccc1”, the absorption maximum is on record as 344 nm.
With `FC(F)(F)C(F)(F)C(F)(F)C1=NC2=C(c3ccccc3)C=C3c4cc(-c5ccccc5)c5nc(C(F)(F)C(F)(F)C(F)(F)F)nc6c(-c7ccccc7)cc(c4c56)=C4C=C(c5ccccc5)C(=N1)C2C34` (stereo not given), the absorption maximum (in C1CCOC1) was determined as 500 nm.
Where the note is “in CS(C)=O”, `O=C1CC(=O)Nc2cc(Br)ccc2N1` had an absorption maximum of 299 nm.

The values above are taken from the Deep4Chem optical property database.
